The values below come from patent publication US7462600B2, “Macrolides” (Pfizer Inc, priority 2004, dated 2008).

Assay type in all cases: cell-based
For test [1], the system named is Streptococcus pyogenes 1079. Description: MIC, microtiter broth dilution (NCCLS M100-S14), S. pyogenes 1079 (ermB). Put shortly:
(§1)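 Where available, resistant strains were tested alongside the susceptible parent they derive from. The MIC, determined by tray-based broth dilution and NCCLS M100-S14 interpretation, served as the comparison value.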
Background: Broth dilution looks for growth in wells or tubes with falling amounts of substance.

Test [2] relates to Haemophilus influenzae 1218. Description: MIC, microtiter broth dilution (NCCLS M100-S14), H. influenzae 1218 (susceptible). Put shortly:
as §1

In test [3] the test system is Streptococcus pneumoniae 1016. Kind of test: MIC, microtiter broth dilution (NCCLS M100-S14), S. pneumoniae 1016 (susceptible). Put shortly: as §1
Test [4] deals with Streptococcus pneumoniae 1095. The following applies: microtiter broth dilution. The procedure, abridged: as §1
In test [5] the test system is Streptococcus pneumoniae 1175. The following applies: microtiter broth dilution. Put shortly:
as §1

The mark [6] stands for this setting: H. influenzae 1218 (susceptible).
Where [7] appears, read: S. pneumoniae 1016 (susceptible).

Values after ≈ are worked out from the molar mass of the structure shown. Where two headings read alike, the source gives them in different places.

Regarding `CC[C@H]1OC(=O)[C@H](C)C(=O)[C@H](C)[C@@H](O[C@@H]2O[C@H](C)C[C@H](N(C)C)[C@H]2O)[C@](C)(OC)C[C@@H](C)C(=O)[C@H](C)[C@H]2N(CC3(O)CN(C(=O)c4cc5ccccn5n4)C3)C(=O)O[C@]12C.O=CO` [7.30], the “MIC S. pyogenes 1079” value in test [1] (S. pyogenes 1079 (ermB)) is greater than 64.00 µg/mL. Besides, the “MIC H. influenzae 1218” value in test [2] (setting [6]) turned out to be 8 µg/mL. In test [3] (setting [7]), the “MIC S. pneumo. 1016” value is less than 0.06 µg/mL. Moreover, in test [4] (S. pneumoniae 1095 (ermB)), the “MIC S. pneumo. 1095” value is 0.25 µg/mL. Besides, the “MIC S. pneumo. 1175” value in test [5] (S. pneumoniae 1175 (mefA)) worked out at 0.25 µg/mL.
Consider `CCC1OC(=O)C(C)C(=O)C(C)C(OC2OC(C)CC(N(C)C)C2O)C(C)(OC)CC(C)C(=O)C(C)C2N(CC3CN(C(=O)c4cnn5ccccc45)C3)C(=O)OC12C` (stereo not drawn) [4.35], for which the “MIC S. pyogenes 1079” value in test [1] (Streptococcus pyogenes 1079) is greater than 64.00 µg/mL. The “MIC H. influenzae 1218” value in test [2] (Haemophilus influenzae 1218) was 1 µg/mL (≈ 1.21 µM). In addition, the “MIC S. pneumo. 1016” value in test [3] (Streptococcus pneumoniae 1016) was less than 0.06 µg/mL. Moreover, in test [4] (Streptococcus pneumoniae 1095), the “MIC S. pneumo. 1095” value is 1 µg/mL (≈ 1.21 µM). The “MIC S. pneumo. 1175” value in test [5] (Streptococcus pneumoniae 1175) is 0.12 µg/mL (≈ 0.145 µM).
Turning to `CCC1OC(=O)C(C)C(=O)C(C)C(OC2OC(C)CC(N(C)C)C2O)C(C)(OC)CC(C)C(=O)C(C)C2N(C3CN(Cc4ccc(C#N)c5ncccc45)C3)C(=O)OC12C` (stereo not drawn) [Example 1.96, 3-descladinosyl-11,12-dideoxy-6-O-methyl-3-oxo-12,11-(oxycarbonyl-(1-(quinoline-8-carbonitrile-5-methyl)-azetidin-3-yl)-imino)-erythromycin A], in test [1] (Streptococcus pyogenes 1079), the “MIC S. pyogenes 1079” value stood at 1 µg/mL (≈ 1.2 µM). The “MIC H. influenzae 1218” value in test [2] (Haemophilus influenzae 1218) turned out to be 1 µg/mL (≈ 1.2 µM). Further, the “MIC S. pneumo. 1016” value in test [3] (Streptococcus pneumoniae 1016) is less than 0.063 µg/mL. The “MIC S. pneumo. 1095” value in test [4] (Streptococcus pneumoniae 1095) is less than 0.063 µg/mL. Further, the “MIC S. pneumo. 1175” value in test [5] (Streptococcus pneumoniae 1175) is less than 0.063 µg/mL.
Consider `CCC1OC(=O)C(C)C(=O)C(C)C(OC2OC(C)CC(N(C)C)C2O)C(C)(OC)CC(C)C(=O)C(C)C2N(C3CN(C(COC)c4ccnc5ncccc45)C3)C(=O)OC12C` (stereo not drawn) [Example 1.80, 3-descladinosyl-11,12-dideoxy-6-O-methyl-3-oxo-12,11-(oxycarbonyl-(1-(2-(methoxy)-1S-(1,8-napthyridin-4-yl)-ethyl)-azetidin-3-yl)-imino)-erythromycin A], for which the “MIC S. pyogenes 1079” value in test [1] (Streptococcus pyogenes 1079) was 16 µg/mL (≈ 18.7 µM). For the same molecule, in test [2] (Haemophilus influenzae 1218), the “MIC H. influenzae 1218” value was 4 µg/mL (≈ 4.68 µM). In addition, in test [3] (Streptococcus pneumoniae 1016), the “MIC S. pneumo. 1016” value is less than 0.063 µg/mL. Also, the “MIC S. pneumo. 1095” value in test [4] (Streptococcus pneumoniae 1095) was 1 µg/mL (≈ 1.17 µM). Also, in test [5] (Streptococcus pneumoniae 1175), the “MIC S. pneumo. 1175” value worked out at 0.125 µg/mL (≈ 0.146 µM).
Regarding `CCC1OC(=O)C(C)C(=O)C(C)C(OC2OC(C)CC(N(C)C)C2O)C(C)(OC)CC(C)C(=O)C(C)C2N(C3CN(C(C)c4ccnc5cccnc45)C3)C(=O)OC12C` (stereo not drawn) [Example 1.38, 3-descladinosyl-11,12-dideoxy-6-O-methyl-3-oxo-12,11-(oxycarbonyl-(1-(1S-(1,5-naphthyridin-4-yl)-ethyl)-azetidin-3-yl)-imino)erythromycin A], the “MIC S. pyogenes 1079” value in test [1] (Streptococcus pyogenes 1079) was determined as 4 µg/mL (≈ 4.85 µM). Besides, the “MIC H. influenzae 1218” value in test [2] (Haemophilus influenzae 1218) came out at 1 µg/mL (≈ 1.21 µM). Further, the “MIC S. pneumo. 1016” value in test [3] (Streptococcus pneumoniae 1016) was less than 0.06 µg/mL. Besides, the “MIC S. pneumo. 1095” value in test [4] (Streptococcus pneumoniae 1095) is less than 0.06 µg/mL. Further, in test [5] (Streptococcus pneumoniae 1175), the “MIC S. pneumo. 1175” value worked out at 0.25 µg/mL (≈ 0.303 µM).
For `CC[C@H]1OC(=O)[C@H](C)[C@@H](OC(=O)N2CCCC2c2cccc(F)c2)[C@H](C)[C@@H](O[C@@H]2O[C@H](C)C[C@H](N(C)C)[C@H]2O)[C@](C)(OC)C[C@@H](C)C(=O)[C@H](C)[C@H]2N(CC3CN(Cc4c[nH]c5ncccc45)C3)C(=O)O[C@]12C` (stereo partly drawn) [Example 5.05, 3-descladinosyl-11,12-dideoxy-6-O-methyl-12,11-(oxycarbonyl-(1-((1H-pyrrolo[2,3-b]pyridin-3-yl)-methyl)-(azetidin-3-yl)-methyl)-imino)-3-((2-(3-fluorophenyl)-pyrrolidine)-1-carbonyl)-erythromycin A], the “MIC S. pyogenes 1079” value in test [1] (Streptococcus pyogenes 1079) came to 4 µg/mL (≈ 3.98 µM). In test [2] (Haemophilus influenzae 1218), the “MIC H. influenzae 1218” value came to 8 µg/mL (≈ 7.96 µM). For the same molecule, in test [3] (Streptococcus pneumoniae 1016), the “MIC S. pneumo. 1016” value was less than 0.06 µg/mL. Moreover, in test [4] (Streptococcus pneumoniae 1095), the “MIC S. pneumo. 1095” value turned out to be 2 µg/mL (≈ 1.99 µM). The “MIC S. pneumo. 1175” value in test [5] (Streptococcus pneumoniae 1175) came out at 0.5 µg/mL (≈ 0.497 µM).
`CCC1OC(=O)C(C)C(=O)C(C)C(OC2OC(C)CC(N(C)C)C2O)C(C)(OC)CC(C)C(=O)C(C)C2N(CC3CCCN3C(=O)c3cccc4ncoc34)C(=O)OC12C` (stereo not drawn) [10.23]: the “MIC S. pyogenes 1079” value in test [1] (S. pyogenes 1079 (ermB)) was greater than 64.00 µg/mL. The “MIC H. influenzae 1218” value in test [2] (setting [6]) was determined as 8 µg/mL (≈ 9.51 µM). In addition, the “MIC S. pneumo. 1016” value in test [3] (setting [7]) is less than 0.06 µg/mL. For the same molecule, the “MIC S. pneumo. 1095” value in test [4] (S. pneumoniae 1095 (ermB)) is less than 0.06 µg/mL. Besides, the “MIC S. pneumo. 1175” value in test [5] (S. pneumoniae 1175 (mefA)) was 1 µg/mL (≈ 1.19 µM).
As for `CCC1OC(=O)C(C)C(=O)C(C)C(OC2OC(C)CC(N(C)C)C2O)C(C)(OC)CC(C)C(=O)C(C)C2N(C3CN(S(=O)(=O)c4cnn(-c5ccccc5)c4C)C3)C(=O)OC12C` (stereo not drawn) [Example 3.12, 5-methyl-1-phenyl-1H-pyrazole-4-sulfonyl], the “MIC S. pyogenes 1079” value in test [1] (Streptococcus pyogenes 1079) was 64 µg/mL (≈ 72.1 µM). Besides, in test [2] (Haemophilus influenzae 1218), the “MIC H. influenzae 1218” value stood at 4 µg/mL (≈ 4.5 µM). Besides, in test [3] (Streptococcus pneumoniae 1016), the “MIC S. pneumo. 1016” value was less than 0.06 µg/mL. In addition, in test [4] (Streptococcus pneumoniae 1095), the “MIC S. pneumo. 1095” value worked out at 1 µg/mL (≈ 1.13 µM). In addition, the “MIC S. pneumo. 1175” value in test [5] (Streptococcus pneumoniae 1175) is less than 0.06 µg/mL.
`CCC1OC(=O)C(C)C(=O)C(C)C(OC2OC(C)CC(N(C)C)C2O)C(C)(OC)CC(C)C(=O)C(C)C2N(C3CN(S(=O)(=O)c4c(C)noc4C)C3)C(=O)OC12C` (stereo not drawn) [Example 3.32, 3,5-dimethylisoxazole-4-sulfonyl]: in test [1] (Streptococcus pyogenes 1079), the “MIC S. pyogenes 1079” value was 32 µg/mL (≈ 38.7 µM). Also, in test [2] (Haemophilus influenzae 1218), the “MIC H. influenzae 1218” value came to 2 µg/mL (≈ 2.42 µM). For the same molecule, the “MIC S. pneumo. 1016” value in test [3] (Streptococcus pneumoniae 1016) is less than 0.06 µg/mL. In addition, the “MIC S. pneumo. 1095” value in test [4] (Streptococcus pneumoniae 1095) is 0.5 µg/mL (≈ 0.605 µM). In addition, the “MIC S. pneumo. 1175” value in test [5] (Streptococcus pneumoniae 1175) worked out at 0.12 µg/mL (≈ 0.145 µM).
